Patent publication US12697316B2, “Combination therapy with acetyl-leucine and miglustat” (INTRABIO LTD., priority 2019, dated 2026)

Columns and labels:
Assay type in all cases: in vivo, mouse
[1] = system: Npc1^−/− mice; test: Lipid storage (GSLs, sphingoid bases, cholesterol) in liver of Npc1−/− mice; design: reduction of liver GSL levels (total) / reduction of GM2Gc in liver / reduction of sphingosine in liver / reduction of sphinganine in liver / reduction of GM3Gc in liver: concentration or dose not given beside the values; conditions: 59 days of age
Method: (§1) ADLL and enantiomers (ADLL: Molekula #73891210, ALL: Sigma Aldrich #441511, ADL: Sigma #A0876) were administered as dry admix in powdered mouse diet (PicoLab Rodent Diet 20/5053, LabDiet) at a dose of 0.1 g/kg/day for in vivo studies. Treatment groups for in vivo study consisted of at least 5 mice per group. In vitro studies were conducted with each compound dissolved in PBS to generate a 50 mM stock solution and diluted to a 1 mM working concentration in media (DMEM High Glucose-Gibco #10566016).
(§2) Biochemical and immunohistochemical analyses. Mice were saline perfused under terminal anaesthesia. Tissues for biochemical analysis were snap-frozen on ice-cold isopentane. For immunofluorescent staining, tissues were perfused with 4% PFA followed by PBS and kept in 4% PFA for 24h and stored in PBS containing 20% sucrose longer term. Brains were cut parasagitally (20 micron sections) and stored in 30% ethylene glycol, 30% glycerol 0.1 M sodium phosphate buffer (pH 7.4) at −20° C. Biochemical analysis was performed on water-homogenised tissues (50 mg/ml) and protein content was determined using a BCA protein assay (Thermo Fisher #23227) according to the manufacturer's instructions.
(§3) Sphingoid Base Measurements: Sphingoid bases (sphingosine and sphinganine) were extracted from 100 uL tissue homogenates in 500 uL of chloroform:methanol (1:2v/v) followed by sonication for 10 minutes at room temperature. Subsequently, 1 M 500-uL sodium chloride, 500 uL chloroform, and 3 M 100 uL sodium hydroxide were added to the samples, and vortexed every five minutes for 15 minutes at room temperature. Homogenates were centrifuged (13,000 g for 10 minutes) and the lower organic phase retained. Sphingoid bases were purified from the samples by pre-equilibrating SPA-NH2 columns with 2×1 mL chloroform followed by sample elution with 3×300 ul acetone. The samples were dried under nitrogen. Lipids were resuspended in 50 uL pre-warmed ethanol (37° C.) and 50 uL OPA labelling solution (1 mg OPA/20 uL Ethanol/1 uL 2-mercaptoethanol; dilution 1:2000 in 3% boric acid pH 10.5) was added. Samples were kept at room temperature in the dark for 20 minutes and vortexed every 10 minutes. Samples were buffered with 100 uL methanol: 5 mM Tris pH 7 (9:1) and centrifuged at 5,000 g for 2 minutes. Supernatants (150 uL) were loaded onto a reverse phase HPLC. Chromatography was carried out using a mobile phase of 85% acetonitrile/15% H2O at a flow rate of 1.0 ml/min. The orthophthaldehyde-labelled derivatives were monitored at an excitation wavelength of 340 nm and an emission wavelength of 450 nm. Quantification of trace peak area was carried out using EZChrom Elite software v3.2.1.
(§4) Glycosphingolipid measurements: Glycosphingolipids were extracted and measured by NP-HPLC according to published methods. Tissue homogenates in chloroform/methanol (C:M) (1:2 v/v) overnight at 4° C. The mixture was centrifuged (3000 rpm/10 min) and 1 mL chloroform and 1 mL PBS were added to the supernatant and centrifuged (3000 rpm/10 min). The lower phase was dried under N2, resuspended in 50 uL C:M 1:3 v/v and combined with the upper phase. Subsequently, GSLs were recovered using C18 Isolute columns (100 mg) (Biotage) pre-equilibrated with 4×1 mL MeOH and 2×1 mL H2O. Samples were washed 3×1 mL H2O and eluted with 1 mL C:M 98:2, 2×1 mL C:M 1:3, 1 mL MeOH. The column eluate was dried under N2, resuspended in 100 uL C:M 2:1, dried again under N2 and resuspended in ceramide glycanase (CGase) buffer (50 mM sodium acetate pH 5.5, 1 mg/mL sodium taurodeoxycholate). 50 mU CGase was added, and samples incubated at 37° C. overnight. Released oligosaccharides were anthranilic acid (2-AA) labelled and purified by mixing with 1 mL Acetonitrile: H2O 97:3 and added to Discovery DPA-6S columns (SUPELCO, # 52625-U) pre-equilibrated with 1 mL acetonitrile, 2×1 mL H2O, and 2×1 mL acetonitrile. Columns were washed with 2×1 mL Acetonitrile: H2O 95:5 v/v, and eluted in 2×0.75 mL H2O. […]

[2] = system: Npc1^−/− mice; test: Cerebellar immunohistochemistry (Purkinje cells, CD68 microglia) in Npc1−/− mice; conditions: for reduction of frequency of CD68 positive activated microglia: cerebellum; for reduction of frequency of CD68 positive activated microglia / Purkinje cell survival in any cerebellar lobules: compared to Npc1−/− UT
Method: as §1, §2
Immunohistochemistry: Free-floating brain sections in glycerol/ethylene were rinsed 3 times with PBS and blocked with 2% goat serum in 0.3% PBS Triton at room temperature. Sections were stained with primary antibodies; rabbit Calbindin (1:2000) and rat CD68 (1:500) in 2% goat serum in 0.3% PBS for 16 hours at 4° C., followed by washing with 0.3% PBS Triton, then 3 times with PBS. Secondary antibody staining (Alexa Fluor 597 Goat anti rabbit Far Red, Alexa Fluor 488 Goat anti rat) was conducted at room temperature for 2 hours. Samples were washed once with 0.3% PBS Triton, 3 times with PBS and manually mounted on slides. Slides left on the bench overnight to dry the sections followed by application of ProLong Gold (Invitrogen, #P36930).
Image Acquisition and Quantification: Brain sections and CHO cells imaging was performed with a Leica-SP8 confocal microscope in tile imaging mode. Western blot data acquisition was conducted with LiCOR Odyssey Infrared Imaging system model no 9120. Mean fluorescence values, cerebellum diameters and areas, cell quantifications were calculated with Fuji Version 1.0 software.

[3] = system: Npc1^−/− mice; test: Lipid storage (GSLs, sphingoid bases) in forebrain and cerebellum of Npc1−/− mice; design: concentration or dose not given beside the values; conditions: Npc1−/− mice treated from 3 weeks, 59 days of age
Method: as §1, §2, §3, §4

[4] = 59 days of age, relative to untreated Npc1−/− littermates

Row | Compound | decrease of total free cholesterol in liver [1] [%] | reduction of sphinganine in liver [1] [%] | reduction of sphingosine in liver [1] [%] | reduction of GM2Gc in liver ([1]; vs untreated Npc1−/−) [%] | reduction of liver GSL levels (total) ([1]; vs untreated Npc1−/−) [%] | more Purkinje cells in lobule III [2, 4] [%] | more Purkinje cells in lobules I and II [2, 4] [%] | reduction of frequency of CD68 positive activated microglia ([2]; 59 days of age) | reduction of GA2 in cerebellum [3] [%] | reduction of sphinganine levels in forebrain [3] [%] | Purkinje cell survival in any cerebellar lobules ([2]; 59 days of age) | long term neuroprotective effects ([2]; Npc1−/− mice) | reduction of sphinganine in cerebellum [3] [%] | reduction of GM3Gc in liver ([1]; vs untreated Npc1−/−) [%] | reduction of GA1 in cerebellum [3] [%] | reduction of GM1a in forebrain [3] [%] | reduction of GM2 in forebrain [3] [%]
1 | CC(=O)NC(CC(C)C)C(=O)O (racemic) [ADLL, N-acetyl-DL-leucine] | 18.2 | 32.5 | 29.5 | 26.7 | 26.9 | 402 | 133 | did not have a significant impact | 21.3 | 13.5 | – | – | – | – | – | – | –
2 | CC(=O)N[C@H](CC(C)C)C(=O)O [ADL, N-acetyl-D-leucine] | 16.2 | 38.5 | 33.6 | 29 | 26.9 | – | – | did not have a significant impact | – | 18.2 | did not significantly improve | did not mediate any long term, neuroprotective effects | 42.3 | – | – | – | –
3 | CC(=O)N[C@@H](CC(C)C)C(=O)O [ALL, N-acetyl-L-leucine] | 23.4 | 37.4 | 33.2 | 45 | 45.6 | – | – | 20% | 23.8 | – | did not significantly improve | – | – | 54.8 | 23.5 | 20.1 | 19.6
